ChEMBL document CHEMBL1909046, “DrugMatrix in vitro pharmacology data”

Target: T1, Endothelin-1 receptor (Homo sapiens, UniProt P25101); further: in other assays of this panel Not Active means under 50% inhibition at 10 µM
T1 sequence (P25101 whole entry): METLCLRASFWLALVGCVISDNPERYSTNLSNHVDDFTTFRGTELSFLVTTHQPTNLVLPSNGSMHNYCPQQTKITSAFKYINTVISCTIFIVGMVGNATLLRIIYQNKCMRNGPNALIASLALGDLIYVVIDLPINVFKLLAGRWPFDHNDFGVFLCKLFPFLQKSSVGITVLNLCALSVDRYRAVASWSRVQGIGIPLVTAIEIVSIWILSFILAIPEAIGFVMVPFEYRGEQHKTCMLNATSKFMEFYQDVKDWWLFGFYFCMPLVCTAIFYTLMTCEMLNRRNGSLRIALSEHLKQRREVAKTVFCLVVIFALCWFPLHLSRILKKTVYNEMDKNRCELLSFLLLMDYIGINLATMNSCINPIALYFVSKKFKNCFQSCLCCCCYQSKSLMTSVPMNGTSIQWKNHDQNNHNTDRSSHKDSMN
Type: cell membranes, CHO-K1, Membrane
Details: cho-k1

SMILES | IC50
COc1cc2c3cc1Oc1cc(ccc1O)C[C@@H]1c4c(cc(OC)c(O)c4Oc4ccc(cc4)C[C@@H]3N(C)CC2)CC[N+]1(C)C.[Cl-] | Not Active
CN(Cc1ccc(C(C)(C)C)cc1)Cc1cccc2ccccc12 [BUTENAFINE] | Not Active
Sc1ncnc2nc[nH]c12 [MERCAPTOPURINE ANHYDROUS] | Not Active
CC(C)(C)NCC(O)c1cc(Cl)c(N)c(Cl)c1 (configuration not stated) [CLENBUTEROL] | Not Active
Nc1nc2c(ncn2COCCO)c(=O)[nH]1 [ACYCLOVIR] | Not Active
c1ccc2c(c1)c1cccc3ccc4cccc2c4c31 [BENZO[E]PYRENE] | Not Active

Tested on: not listed separately
Experiment: DRUGMATRIX: Glutamate, Kainate radioligand binding (ligand: [3H] Kainic acid)
Type: cell membranes, Rattus norvegicus, Wistar, Brain, Membrane
Details: Not Active = under 50% inhibition at 10 µM

SMILES | IC50 | Ki
COc1cc2c3cc1Oc1cc(ccc1O)C[C@@H]1c4c(cc(OC)c(O)c4Oc4ccc(cc4)C[C@@H]3N(C)CC2)CC[N+]1(C)C.[Cl-] | Not Active | Not Active
CN(Cc1ccc(C(C)(C)C)cc1)Cc1cccc2ccccc12 [BUTENAFINE] | Not Active | Not Active
Sc1ncnc2nc[nH]c12 [MERCAPTOPURINE ANHYDROUS] | Not Active | Not Active
CC(C)(C)NCC(O)c1cc(Cl)c(N)c(Cl)c1 (configuration not stated) [CLENBUTEROL] | Not Active | Not Active
Nc1nc2c(ncn2COCCO)c(=O)[nH]1 [ACYCLOVIR] | Not Active | Not Active
c1ccc2c(c1)c1cccc3ccc4cccc2c4c31 [BENZO[E]PYRENE] | Not Active | Not Active

Tested on: not listed separately
Experiment: DRUGMATRIX: Glutamate, NMDA, Agonism radioligand binding (ligand: [3H] CGP-39653)
Type: cell membranes, Rattus norvegicus, Wistar, Cerebral cortex, Membrane
Details: Not Active = under 50% inhibition at 10 µM

SMILES | IC50 | Ki
COc1cc2c3cc1Oc1cc(ccc1O)C[C@@H]1c4c(cc(OC)c(O)c4Oc4ccc(cc4)C[C@@H]3N(C)CC2)CC[N+]1(C)C.[Cl-] | Not Active | Not Active
CN(Cc1ccc(C(C)(C)C)cc1)Cc1cccc2ccccc12 [BUTENAFINE] | Not Active | Not Active
Sc1ncnc2nc[nH]c12 [MERCAPTOPURINE ANHYDROUS] | Not Active | Not Active
CC(C)(C)NCC(O)c1cc(Cl)c(N)c(Cl)c1 (configuration not stated) [CLENBUTEROL] | Not Active | Not Active
Nc1nc2c(ncn2COCCO)c(=O)[nH]1 [ACYCLOVIR] | Not Active | Not Active
c1ccc2c(c1)c1cccc3ccc4cccc2c4c31 [BENZO[E]PYRENE] | Not Active | Not Active

Target: T2, 3-hydroxy-3-methylglutaryl-coenzyme A reductase (Homo sapiens, UniProt P04035);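 further: enzyme inhibition assay of HMG-CoA reductase using radiolabeled [14C]HMG-CoA as substrate; in other assays of this panel Not Active means under 50% inhibition at 10 µM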
T2 sequence (P04035 whole entry): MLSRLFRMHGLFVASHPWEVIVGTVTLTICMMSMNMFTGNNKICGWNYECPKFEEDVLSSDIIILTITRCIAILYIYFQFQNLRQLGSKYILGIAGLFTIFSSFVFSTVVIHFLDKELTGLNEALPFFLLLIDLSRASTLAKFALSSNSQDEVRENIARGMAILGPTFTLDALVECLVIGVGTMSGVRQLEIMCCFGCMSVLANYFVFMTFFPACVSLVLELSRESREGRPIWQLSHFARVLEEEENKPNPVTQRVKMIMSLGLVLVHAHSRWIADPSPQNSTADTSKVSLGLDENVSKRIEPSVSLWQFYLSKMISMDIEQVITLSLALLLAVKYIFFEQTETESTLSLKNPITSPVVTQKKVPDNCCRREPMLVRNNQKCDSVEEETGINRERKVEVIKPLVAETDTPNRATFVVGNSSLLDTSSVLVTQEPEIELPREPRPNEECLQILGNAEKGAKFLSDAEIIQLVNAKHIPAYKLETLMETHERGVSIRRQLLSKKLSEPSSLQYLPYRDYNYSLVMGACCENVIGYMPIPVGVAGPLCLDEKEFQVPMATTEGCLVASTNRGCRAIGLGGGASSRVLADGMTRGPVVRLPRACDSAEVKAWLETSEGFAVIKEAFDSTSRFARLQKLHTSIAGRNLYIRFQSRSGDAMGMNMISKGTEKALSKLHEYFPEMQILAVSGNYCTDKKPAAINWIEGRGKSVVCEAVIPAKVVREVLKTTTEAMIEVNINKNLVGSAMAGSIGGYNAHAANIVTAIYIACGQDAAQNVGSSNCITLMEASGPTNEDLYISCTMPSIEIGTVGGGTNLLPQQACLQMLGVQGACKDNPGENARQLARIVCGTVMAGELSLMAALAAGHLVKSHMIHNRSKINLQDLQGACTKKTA
Set-up: species or system Escherichia coli
Details: not given

SMILES | IC50
COc1cc2c3cc1Oc1cc(ccc1O)C[C@@H]1c4c(cc(OC)c(O)c4Oc4ccc(cc4)C[C@@H]3N(C)CC2)CC[N+]1(C)C.[Cl-] | Not Active
CN(Cc1ccc(C(C)(C)C)cc1)Cc1cccc2ccccc12 [BUTENAFINE] | Not Active
Sc1ncnc2nc[nH]c12 [MERCAPTOPURINE ANHYDROUS] | Not Active
CC(C)(C)NCC(O)c1cc(Cl)c(N)c(Cl)c1 (configuration not stated) [CLENBUTEROL] | Not Active
Nc1nc2c(ncn2COCCO)c(=O)[nH]1 [ACYCLOVIR] | Not Active
c1ccc2c(c1)c1cccc3ccc4cccc2c4c31 [BENZO[E]PYRENE] | Not Active

Tested on: not listed separately
Experiment: DRUGMATRIX: Interleukin IL-1 radioligand binding (ligand: [125I] interleukin 1beta)
Type: cell membranes, Membrane
Details: nih3t3; Not Active = under 50% inhibition at 10 µM

SMILES | IC50 | Ki
COc1cc2c3cc1Oc1cc(ccc1O)C[C@@H]1c4c(cc(OC)c(O)c4Oc4ccc(cc4)C[C@@H]3N(C)CC2)CC[N+]1(C)C.[Cl-] | Not Active | Not Active
CN(Cc1ccc(C(C)(C)C)cc1)Cc1cccc2ccccc12 [BUTENAFINE] | Not Active | Not Active
Sc1ncnc2nc[nH]c12 [MERCAPTOPURINE ANHYDROUS] | Not Active | Not Active
CC(C)(C)NCC(O)c1cc(Cl)c(N)c(Cl)c1 (configuration not stated) [CLENBUTEROL] | Not Active | Not Active
Nc1nc2c(ncn2COCCO)c(=O)[nH]1 [ACYCLOVIR] | Not Active | Not Active
c1ccc2c(c1)c1cccc3ccc4cccc2c4c31 [BENZO[E]PYRENE] | Not Active | Not Active

Target: T3, Cysteinyl leukotriene receptor 1 (Homo sapiens, UniProt Q9Y271); further: in other assays of this panel Not Active means under 50% inhibition at 10 µM
T3 sequence (Q9Y271 whole entry): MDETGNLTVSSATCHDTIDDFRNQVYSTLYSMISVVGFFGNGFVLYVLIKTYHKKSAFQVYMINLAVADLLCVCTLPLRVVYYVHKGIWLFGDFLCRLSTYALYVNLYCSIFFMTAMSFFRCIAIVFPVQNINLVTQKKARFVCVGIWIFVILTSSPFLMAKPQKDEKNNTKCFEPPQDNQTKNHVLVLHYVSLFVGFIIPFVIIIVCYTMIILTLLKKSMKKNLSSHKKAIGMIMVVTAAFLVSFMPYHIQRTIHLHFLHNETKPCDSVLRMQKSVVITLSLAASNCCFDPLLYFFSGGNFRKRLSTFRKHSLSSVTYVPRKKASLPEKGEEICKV
Type: cell membranes, CHO-K1, Membrane
Details: cho-k1

SMILES | IC50
COc1cc2c3cc1Oc1cc(ccc1O)C[C@@H]1c4c(cc(OC)c(O)c4Oc4ccc(cc4)C[C@@H]3N(C)CC2)CC[N+]1(C)C.[Cl-] | Not Active
CN(Cc1ccc(C(C)(C)C)cc1)Cc1cccc2ccccc12 [BUTENAFINE] | Not Active
Sc1ncnc2nc[nH]c12 [MERCAPTOPURINE ANHYDROUS] | Not Active
CC(C)(C)NCC(O)c1cc(Cl)c(N)c(Cl)c1 (configuration not stated) [CLENBUTEROL] | Not Active
Nc1nc2c(ncn2COCCO)c(=O)[nH]1 [ACYCLOVIR] | Not Active
c1ccc2c(c1)c1cccc3ccc4cccc2c4c31 [BENZO[E]PYRENE] | Not Active

Target: cGMP-specific 3',5'-cyclic phosphodiesterase (Homo sapiens, UniProt O76074)
Experiment: DRUGMATRIX: Phosphodiesterase PDE5 enzyme inhibition (substrate: [3H]cGMP + cGMP)
Type: tissue-based
Details: platelet; Not Active = under 50% inhibition at 10 µM

SMILES | IC50
COc1cc2c3cc1Oc1cc(ccc1O)C[C@@H]1c4c(cc(OC)c(O)c4Oc4ccc(cc4)C[C@@H]3N(C)CC2)CC[N+]1(C)C.[Cl-] | Not Active
CN(Cc1ccc(C(C)(C)C)cc1)Cc1cccc2ccccc12 [BUTENAFINE] | Not Active
Sc1ncnc2nc[nH]c12 [MERCAPTOPURINE ANHYDROUS] | Not Active
CC(C)(C)NCC(O)c1cc(Cl)c(N)c(Cl)c1 (configuration not stated) [CLENBUTEROL] | Not Active
Nc1nc2c(ncn2COCCO)c(=O)[nH]1 [ACYCLOVIR] | Not Active
c1ccc2c(c1)c1cccc3ccc4cccc2c4c31 [BENZO[E]PYRENE] | Not Active

Target: Acetylcholinesterase (Homo sapiens, UniProt P22303)
Experiment: DRUGMATRIX: Acetylcholinesterase enzyme inhibition (substrate: acetylthiocholine)
Type: cell-based, HEK293
Details: Not Active = under 50% inhibition at 10 µM; read-out: IC50

Sequence of Acetylcholinesterase (P22303 whole entry): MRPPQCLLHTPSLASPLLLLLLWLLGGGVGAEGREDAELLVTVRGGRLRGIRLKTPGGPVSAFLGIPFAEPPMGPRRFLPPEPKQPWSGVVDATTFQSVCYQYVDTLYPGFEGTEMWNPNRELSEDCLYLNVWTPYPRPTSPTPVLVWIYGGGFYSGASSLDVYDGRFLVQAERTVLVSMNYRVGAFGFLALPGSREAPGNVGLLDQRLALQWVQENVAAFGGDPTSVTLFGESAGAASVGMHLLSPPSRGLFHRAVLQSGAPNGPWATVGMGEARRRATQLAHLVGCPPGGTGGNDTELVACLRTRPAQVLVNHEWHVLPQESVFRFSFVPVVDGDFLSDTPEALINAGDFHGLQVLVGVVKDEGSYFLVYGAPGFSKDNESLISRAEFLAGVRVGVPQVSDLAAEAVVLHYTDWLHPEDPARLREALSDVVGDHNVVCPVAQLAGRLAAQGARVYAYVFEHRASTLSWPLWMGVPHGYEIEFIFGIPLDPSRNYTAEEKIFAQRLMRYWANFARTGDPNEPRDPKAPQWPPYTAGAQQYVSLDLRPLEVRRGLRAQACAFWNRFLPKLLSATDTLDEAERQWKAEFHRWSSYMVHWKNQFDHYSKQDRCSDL

SMILES | IC50
CN(Cc1ccc(C(C)(C)C)cc1)Cc1cccc2ccccc12 [BUTENAFINE] | 6.91 µM

Same assay, conditions: hek293; Not Active = under 50% inhibition at 10 µM

SMILES | IC50
COc1cc2c3cc1Oc1cc(ccc1O)C[C@@H]1c4c(cc(OC)c(O)c4Oc4ccc(cc4)C[C@@H]3N(C)CC2)CC[N+]1(C)C.[Cl-] | Not Active
Sc1ncnc2nc[nH]c12 [MERCAPTOPURINE ANHYDROUS] | Not Active
CC(C)(C)NCC(O)c1cc(Cl)c(N)c(Cl)c1 (configuration not stated) [CLENBUTEROL] | Not Active
Nc1nc2c(ncn2COCCO)c(=O)[nH]1 [ACYCLOVIR] | Not Active
c1ccc2c(c1)c1cccc3ccc4cccc2c4c31 [BENZO[E]PYRENE] | Not Active

Target: T4, Adenosine receptor A1 (Homo sapiens, UniProt P30542);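 further: radioligand binding assay at the adenosine A1 receptor, with DPCPX serving as the labelled ligand; in other assays of this panel Not Active means under 50% inhibition at 10 µM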
T4 sequence (P30542 whole entry): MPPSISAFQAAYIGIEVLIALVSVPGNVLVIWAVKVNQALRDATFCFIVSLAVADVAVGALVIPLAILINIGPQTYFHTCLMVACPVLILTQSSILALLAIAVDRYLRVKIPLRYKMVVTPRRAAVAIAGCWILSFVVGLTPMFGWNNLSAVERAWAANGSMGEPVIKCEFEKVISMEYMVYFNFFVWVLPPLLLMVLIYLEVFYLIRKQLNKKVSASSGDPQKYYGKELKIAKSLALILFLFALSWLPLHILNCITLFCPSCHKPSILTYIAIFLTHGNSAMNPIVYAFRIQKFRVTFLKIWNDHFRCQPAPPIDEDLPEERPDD
Type: cell membranes, CHO, Membrane
Details: cho

SMILES | IC50
COc1cc2c3cc1Oc1cc(ccc1O)C[C@@H]1c4c(cc(OC)c(O)c4Oc4ccc(cc4)C[C@@H]3N(C)CC2)CC[N+]1(C)C.[Cl-] | Not Active
CN(Cc1ccc(C(C)(C)C)cc1)Cc1cccc2ccccc12 [BUTENAFINE] | Not Active
Sc1ncnc2nc[nH]c12 [MERCAPTOPURINE ANHYDROUS] | Not Active
CC(C)(C)NCC(O)c1cc(Cl)c(N)c(Cl)c1 (configuration not stated) [CLENBUTEROL] | Not Active
Nc1nc2c(ncn2COCCO)c(=O)[nH]1 [ACYCLOVIR] | Not Active
c1ccc2c(c1)c1cccc3ccc4cccc2c4c31 [BENZO[E]PYRENE] | Not Active
